Columns and labels:
[1] = molecular target: T1, Type-1 angiotensin II receptor (Homo sapiens) (UniProt P30556); test: (§1) Displacement of 125[I-Sar1-Ile8]ANG II from human AT1 receptor expressed in HEK293 membranes after 1 hr by gamma counting; assay type: cell membranes
T1 sequence (whole entry): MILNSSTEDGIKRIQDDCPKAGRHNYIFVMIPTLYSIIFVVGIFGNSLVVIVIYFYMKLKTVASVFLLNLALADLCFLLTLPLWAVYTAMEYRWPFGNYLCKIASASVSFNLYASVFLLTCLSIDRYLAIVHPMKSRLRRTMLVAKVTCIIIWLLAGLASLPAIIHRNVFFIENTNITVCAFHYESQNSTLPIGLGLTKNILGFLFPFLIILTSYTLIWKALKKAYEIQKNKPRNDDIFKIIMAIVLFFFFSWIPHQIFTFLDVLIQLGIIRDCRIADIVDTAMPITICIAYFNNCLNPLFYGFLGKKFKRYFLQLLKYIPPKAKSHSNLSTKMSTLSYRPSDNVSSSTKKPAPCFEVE

[2] = molecular target: T2, Type-1 angiotensin II receptor (Homo sapiens, UniProt P30556); test: as §1; assay type: cell membranes
T2 sequence (P30556 whole entry): T1 sequence (whole entry)

[3] = Antagonist activity at AT1 receptor in rat uterus assessed inhibition of ANG II-induced contraction

| Activity [1] | IC50 ([2]; read-out: IC50) [nM] | IC50 ([2]; read-out: pIC50 (converted)) [nM] | pA2 [3] | SMILES |
| --- | --- | --- | --- | --- |
| Dose-dependent effect | – | – | – | CCCCc1nc(Cl)c(CO)n1Cc1ccc(-c2ccccc2-c2nnn[nH]2)cc1 |
| – | 30 | – | – | CCCCc1cnc(CO)n1Cc1ccc(-c2ccccc2-c2nnn[nH]2)cc1 |
| – | 3 | 3.47 | – | CCCCc1cnc(C(=O)O)n1Cc1ccc(-c2ccccc2-c2nnn[nH]2)cc1 |
| Dose-dependent effect | – | – | 7.97 | CCCCc1cnc(CO)n1Cc1ccc(-c2ccccc2-c2nn[nH]n2)cc1 |
| Dose-dependent effect | 634 | – | 6.98 | CCCCc1c(Cl)nc(CO)n1Cc1ccc(-c2ccccc2-c2nn[nH]n2)cc1 |
| – | 117 | – | – | CCCCc1c(Br)nc(CO)n1Cc1ccc(-c2ccccc2-c2nnn[nH]2)cc1 |
| Dose-dependent effect | – | – | 7.58 | CCCCc1c(Br)nc(CO)n1Cc1ccc(-c2ccccc2-c2nn[nH]n2)cc1 |
| Dose-dependent effect | – | – | 7.35 | CCCCc1c(I)nc(CO)n1Cc1ccc(-c2ccccc2-c2nn[nH]n2)cc1 |
| Dose-dependent effect | – | – | 7.83 | CCCCc1cnc(C(=O)O)n1Cc1ccc(-c2ccccc2-c2nn[nH]n2)cc1 |
| Dose-dependent effect | 245 | – | 6.19 | CCCCc1cnc(CO)n1Cc1ccc(-c2ccccc2C(=O)O)cc1 |
| Dose-dependent effect | 24 | – | 7.76 | CCCCc1cnc(C=O)n1Cc1ccc(-c2ccccc2-c2nn[nH]n2)cc1 |
| – | 446 | – | – | CCCCc1c(I)nc(CO)n1Cc1ccc(-c2ccccc2-c2nnn[nH]2)cc1 |

From ChEMBL document CHEMBL2062490, “The discovery of new potent non-peptide Angiotensin II AT1 receptor blockers: a concise synthesis, molecular docking studies and biological evaluation of N-substituted 5-butylimidazole derivatives” (Eur J Med Chem, 2012)
